The source of these data is patent US12268670B2, “Combination of small molecule CD-47 inhibitors with other anti-cancer agents” (Aurigene Oncology Limited, priority 2018, dated 2025).

Marks after values point to notes of the source that are not given here.

Series [1] has as its system A20 syngeneic lymphoma model. As to the kind of experiment: Efficacy study in A20 syngeneic lymphoma model. The class given is in vivo, Balb/c mice. An excerpt: Female Balb/c (BALB/cAnNTac) mice (6-8 weeks-old) bred in-house were used in this efficacy study in the A20 syngeneic lymphoma model. The animals were marked individually with tail marks and kept in cages that were identified by a cage card showing the study code, date of experimentation, sex and number of animals. During the experiment, the animals were weighed daily. A20 cell line (B-cell lymphoma line derived from a spontaneous reticulum cell neoplasm found in an old BALB/cAnN mouse) was procured from ATCC.
When the mean tumor volumes reached approximately 75 mm^3, the animals were randomized based on tumor volumes into four groups (G1 to G4) of twelve animals (N=12) each and dosed with vehicle, Compound 6, anti-mouse PD-L1 antibody and the combination of Compound 6 and anti-mouse PD-L1 antibody as mentioned below:
The treatment was continued for a period of 21 days, during which the overall efficacy and tolerability were evaluated based on tumor volume and body weight changes observed during the treatment period.
Individual animal body weights were recorded daily before the administration of Compound 6 throughout the experimental period. […] The tumor volumes were measured in all treatment group animals thrice a week (once every 2-3 days) using a digital Vernier callipers. From an ethical viewpoint, any treatment/control group with a mean tumor weight in excess of 10% of animal body weight were humanely sacrificed. As a measure of efficacy, the % T (treatment)/C(control) and % TGI (% Tumor growth inhibition) values were calculated. Graphs and statistical analysis were performed using GraphPad Prism®, Version 7.0. For analysis of tumor volume data, statistical comparison was done on Day 18 for all groups using One-way ANOVA with Dunnett's multiple comparison test. All analyses and comparisons was evaluated at the 5% (p<0.05) level. A “p” value less than 0.05 was considered as significant.

Series [2] has as its system H929 (multiple myeloma cell line) cells. As to the kind of experiment: Human macrophage phagocytosis assay in combination with bortezomib. In kind it is cell-based. The following applies: H929 cells treated with 10 nM bortezomib for 48 hrs, compared with compound alone; FIG. 2. The procedure:
In vitro phagocytosis assay was performed to evaluate the ability of test item to enhance the phagocytic activity of macrophages. Monocytes were isolated from blood of healthy donors and cultured for 6-8 days using complete RPMI (Roswell Park Memorial Institute) supplemented with 20 ng/mL recombinant human M-CSF to differentiate them into macrophages. Media was changed every alternate day. Simultaneously H929 cells were cultured in complete RPMI media and treated with 10 nM bortezomib for 48 hrs. Macrophages were starved for 2 hrs in serum free RPMI.CFSE stained, Bortezomib treated/untreated H929 (multiple myeloma cell line) cells were seeded at a density of 0.2×10^6 cells/well in 96-well low attachment plate and treated with anti-human CD47 purified B6H12 (5 μg/mL)/Mouse IgG1 K Isotype Control antibody (5 μg/mL)/different concentrations of selected compounds of the present invention in serum free media for 30 min at 37° C. Serum starved macrophages were added to H929 cells at a ratio of 1:4 (macrophages:H929 cells) and incubated for 2 hours at 37° C. Cells in each well were stained with anti-human CD11b APC for 30 minutes at 4° C. in dark followed by fixation and FACS analysis. Cells positive for FITC and APC were considered as H929 cells phagocytosed by macrophages. Data acquired using FACS verse was analysed using Flow Jo software.

For series [3], the system named is luciferase expressing Raji (lymphoma cell line) cells. As to the kind of experiment: Luciferase based phagocytosis assay (macrophages, combination with anti-human CD20 antibody). In kind it is cell-based. The following applies: in combination with anti-human CD20 antibody, compared with compound alone; FIG. 1. How it is done:
In vitro phagocytosis assay was performed to evaluate the ability of test item to enhance the phagocytic activity of macrophages. Monocytes were isolated from blood of healthy donor and cultured for 6-8 days using 10% RPMI (Roswell Park Memorial Institute) media and recombinant human M-CSF to differentiate into macrophages. Media was changed every alternate day. After differentiation, adherent macrophages were collected by gentle scraping and cultured in 10% RPMI overnight at a density of 0.1 million per well in 48 well tissue culture plate. Simultaneously, luciferase expressing Raji (lymphoma cell line) cells were cultured in 10% RPMI media with 100 μg/mL of hygromycin B in tissue culture flask. On the day of phagocytosis, macrophages were serum starved for 2 hours. 0.4 million luciferase expressing Raji cells per well were incubated with anti-human CD47 antibody or Mouse IgG1 K Isotype Control antibody or various concentrations of selected compounds of the present invention alone or in combination with anti-human CD20 antibody in serum free media for 30 min at 37° C. and added into respective well of the 48 well plate seeded with macrophages. […] Luminescence reading was taken using plate reader after transferring the content of each well to white plate. Intensity of luminescence indicated the extent of phagocytosis. […]

As to `NC(=O)CC[C@H](N)c1noc(CNC(=O)N2CCCC2C(=O)O)n1` (stereo partly shown) [Compound 6], in series [1] (A20 tumor bearing Balb/c mice, Compound 6 30 mg/kg bid oral, anti-mouse PD-L1 antibody 200 μg/animal i.p. Day 1, 3, 6, 9, statistics on Day 18), the “% TGI” value is listed as 72* %. In series [1] (Compound 6 30 mg/kg bid, single agent or in combination with PD-L1 antibody, 21 days), the “tolerability (clinical signs, mortality)” value is “well tolerated without any treatment related clinical signs and mortality”. For the same compound, the “tumor growth inhibition (TGI)” value in series [1] (at the end of treatment period (21 days), Compound 6 30 mg/kg, A20 tumor bearing mice) was found to be 72%. Further, in series [2], the “phagocytosis of multiple myeloma cells (FACS, FITC and APC positive cells)” value is on record as “Enhanced phagocytosis”. Besides, the “phagocytosis of lymphoma cells (luminescence intensity)” value in series [3] was “Enhanced phagocytosis”.
Take `N=C(N)NCCC[C@H](NC(=O)N1CCCC1C(=O)O)c1nc([C@@H](N)CCC(=O)O)no1` (stereo partly shown) [Compound 3]: the “phagocytosis of multiple myeloma cells (FACS, FITC and APC positive cells)” value in series [2] is recorded as “Enhanced phagocytosis”. In addition, in series [3], the “phagocytosis of lymphoma cells (luminescence intensity)” value was “Enhanced phagocytosis”.
